Experiments:
Format in all cases: in vivo
[1] = Pharmacokinetics in cynomolgus monkeys; conditions: cynomolgus monkey, plasma, iv, C0, I.V. (1 mg/kg), read-out: C0 or Cmax
Protocol: (§1) The pharmacokinetics of test compounds were evaluated in male C57BL/6 mice, Sprague Dawley rats, Beagle dogs, and cynomolgus monkeys when administered via oral gavage and IV injection. The animals were fasted overnight before administration. Plasma samples were collected predose and at 0.5, 1, 3, 6, 9, 12, and 24 hours postdose. The samples were analyzed by LC/MS/MS and the concentration of test compound at each timepoint was determined by linear regression. Pharmacokinetic parameters were calculated from the plasma concentrations using Pheonix WinNonlin.

[2] = Pharmacokinetics in Sprague Dawley rats; conditions: rat, plasma, iv, C0, I.V. (1 mg/kg), read-out: C0 or Cmax
Protocol: as §1

[3] = Pharmacokinetics in C57BL/6 mice; conditions: male, mouse, plasma, iv, C0, I.V. (2 mg/kg), read-out: C0 or Cmax
Protocol: as §1

[4] = Pharmacokinetics in Beagle dogs; conditions: dog, plasma, iv, C0, I.V. (1 mg/kg), read-out: C0 or Cmax
Protocol: as §1

[2H]C([2H])([2H])NC(=O)c1nnc(NC(=O)C2CC2)cc1Nc1cccc(-c2ncn(C)n2)c1OC [control, BMS-986165]
Cmax [1]: 1420 ± 264 ng/mL | Cmax [2]: 1740 ± 276 ng/mL | Cmax [3]: 3220 ng/mL | Cmax [4]: 559 ± 34 ng/mL

Reference: patent US12351572B2, “Substituted 1,2,4-triazoles as TYK2 inhibitors” (Alumis Inc., priority 2018, dated 2025)
